{"source": "patent US20090170945A1", "about": "“[…]” (priority 2007, published 2009)", "key": {"[1]": {"assay": "Solubility in organic solvents", "type": "physicochemical", "from_the_text": "Pregabalin is obtainable by known methods, such as those described in EPB 641 330. […].\nSuitable solvents include aliphatic cyclic ethers (e.g. dioxane), esters, and ketones (each of the ethers, esters, and ketones having 3 to 12 carbon atoms), and mixtures thereof as well as mixtures with water. The solubility may be enhanced by heating the reaction mixture. The presence of water enhances the solubility of both reagents (i.e., the pregabalin and the corresponding acid) substantially. Due to the high water solubility of the salt, however, the amount of water in the solvent should be minimized prior to the isolation of the salt (e.g. by evaporation of the solvent prior to the isolation), and preferably water is excluded from the solvent entirely. On the other hand, it was shown that the pregabalin salts of the invention are only slightly soluble in aliphatic ethers (such as diisopropyl ether and methyl tert. butyl ether) so that aliphatic ethers may be used as solvents in the salt forming reaction or as antisolvents for the isolation. Furthermore, alcohols as solvents are preferably avoided, as they may be esterified in the presence of the sulfonic acid to yield corresponding esters as byproducts. Thus alcoholic solvents and other non-inert solvents (e.g. solvents that will react under the salt forming conditions) are generally avoided."}, "[2]": {"settings": "cited from earlier work"}, "[3]": {"assay": "Hygroscopicity of solid state salts under storage at ambient and humid conditions", "type": "physicochemical", "settings": "for hygroscopicity: storage at ambient and humid (40 C, 75% RH) conditions"}, "[4]": {"assay": "Formation of impurities during salt formation (HPLC) and stability studies", "settings": "for stability / impurities during salt formation: HPLC after the salt formation", "protocol": "Formation of impurities during the salt forming process was tested by analyzing the samples by HPLC after the salt formation. Salts were also subjected to stability studies in the solid state; particularly, they were subjected to storage at 40 C and 75% RH in the open dish."}, "[5]": {"settings": "per WO 96/40617; cited from earlier work"}, "[6]": {"assay": "Thermogravimetric measurements"}}, "note": "Counter-ions that a name gives are not always drawn.", "data": [{"compound": "CC(C)C[C@H](CN)CC(=O)O", "note": "[Pregabalin, S-(+)-4-amino-3-(2-methylpropyl)butanoic acid]", "values": [{"measurement": "solubility in ethanol", "setting": "[1]", "value": "poorly soluble"}, {"measurement": "pKa (acidic carboxy group)", "setting": "[2]; first of the two printed pKa values", "value": 4.2}, {"measurement": "pKa (basic amino group)", "setting": "[2]; second of the two printed pKa values", "value": 10.6}]}, {"compound": "CC(C)C[C@H](CN)CC(=O)O.O=S(=O)(O)CCS(=O)(=O)O", "note": "[ethane-1,2-disulfonic acid salt]", "values": [{"measurement": "hygroscopicity", "setting": "[3]", "value": "very hygroscopic"}, {"measurement": "water uptake on storage in air", "setting": "[3]; storage in air (R.T.) for 36 days", "value": "formation of a dihydrate"}]}, {"compound": "CC(C)C[C@H](CN)CC(=O)O.O=S(=O)(O)c1cccc2c(S(=O)(=O)O)cccc12", "note": "[napadisylate, pregabalin 1,5-naphthalene disulfonate]", "values": [{"measurement": "solid state stability during prolonged storage", "setting": "[4]; 40 C and 75% RH, open dish", "value": "unstable"}, {"measurement": "stability / impurities during salt formation", "setting": "[4]", "value": "stable"}]}, {"compound": "CC(C)C[C@H](CN)CC(=O)O", "note": "[pregabalin hydrochloride]", "values": [{"measurement": "hygroscopicity", "setting": "[3]", "value": "liquefied"}]}, {"compound": "CC(C)C[C@H](CN)CC(=O)O.O=C(O)[C@@H](O)c1ccccc1", "note": "[pregabalin mandelate, Pregabalin (S)-mandelate]", "values": [{"measurement": "hydrolysis in water to free pregabalin", "setting": "[5]", "value": "easily hydrolyzes in water"}, {"measurement": "stability in aqueous solutions", "setting": "[4]; aqueous solution, lactam impurity", "value": "unstable"}]}, {"compound": "Pregabalin Benzene Sulfonate [pregabalin besylate]", "values": [{"measurement": "stability in solid state and in solution (overall statement)", "setting": "[4]", "value": "stable in both the solid state and in solution"}, {"measurement": "stability / impurities during salt formation", "setting": "[4]", "value": "stable"}, {"measurement": "thermal stability (thermogravimetry), stable up to", "setting": "[6]", "value": "160-170 °C"}, {"measurement": "hygroscopicity", "setting": "[3]", "value": "non-hygroscopic"}]}, {"compound": "Pregabalin p-toluene Sulfonate [pregabalin tosylate]", "values": [{"measurement": "stability in solid state and in solution (overall statement)", "setting": "[4]", "value": "stable in both the solid state and in solution"}, {"measurement": "stability / impurities during salt formation", "setting": "[4]", "value": "stable"}, {"measurement": "thermal stability (thermogravimetry), stable up to", "setting": "[6]", "value": "160-170 °C"}]}, {"compound": "fumarate", "values": [{"measurement": "stability / impurities during salt formation", "setting": "[4]", "value": "formed with by-products"}]}, {"compound": "maleate", "values": [{"measurement": "stability / impurities during salt formation", "setting": "[4]", "value": "formed with by-products"}]}, {"compound": "pregabalin mesylate", "values": [{"measurement": "stability / impurities during salt formation", "setting": "[4]", "value": "stable"}]}]}
